ChEMBL document CHEMBL1201862, “PubChem BioAssay data set” (2004)
Calls of active or inactive are those of the source. Where a SMILES comes first, the peptide text is derived from it. The star is where a group is joined. Boc = CC(C)(C)OC(=O)*; OtBu = CC(C)(C)O*

Experiments:
[1] = fluconazole-exposed Candida albicans growth modulators – fluorescence, retest, confirmation (AID 2467); format: functional, cell-based
[2] = NIH-3T3 fibroblast cytotoxicity, dose response, cytotoxicity control, cell-based, fluorescence, Alamar Blue, secondary assay (AID 2327); format: functional;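 also: NIH-3T3 mouse fibroblasts cultured with fluconazole at 8 µg/mL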
[3] = target: T1, Heat shock factor protein 1 (Mus musculus, UniProt P38532); test: enhancement of HSF1-driven luciferase signal – cell-based, NIH3T3, luminescence, dose retest, confirmation (AID 435004); format: functional;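 also: stress induced by proteasome inhibitor MG132 added 30 min after compound; luciferase reporter driven by HSF1 response element in NIH3T3 cells; actives raise luminescence as potentiators of the MG132 stress response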
T1 sequence (P38532 whole entry): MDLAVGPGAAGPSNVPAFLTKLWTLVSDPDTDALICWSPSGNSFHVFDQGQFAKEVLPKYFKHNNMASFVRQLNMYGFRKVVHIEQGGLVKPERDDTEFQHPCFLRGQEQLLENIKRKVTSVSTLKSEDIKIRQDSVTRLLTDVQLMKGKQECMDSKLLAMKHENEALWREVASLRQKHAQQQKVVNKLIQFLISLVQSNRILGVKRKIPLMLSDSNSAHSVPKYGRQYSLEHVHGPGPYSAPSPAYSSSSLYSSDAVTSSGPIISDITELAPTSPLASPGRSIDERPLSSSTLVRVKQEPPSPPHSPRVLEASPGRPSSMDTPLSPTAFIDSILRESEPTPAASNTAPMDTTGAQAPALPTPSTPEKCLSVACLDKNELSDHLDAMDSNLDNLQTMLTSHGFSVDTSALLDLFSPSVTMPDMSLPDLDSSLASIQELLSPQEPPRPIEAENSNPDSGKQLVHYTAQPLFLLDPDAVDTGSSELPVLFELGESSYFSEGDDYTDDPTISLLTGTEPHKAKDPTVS

Protein RecA = target: T2, Protein RecA (Mycobacterium tuberculosis, UniProt P9WHJ3); test: Fluorescence Cell-Free Homogeneous Dose Retest to Identify Inhibitors of RecA-Intein Splicing Activity. [Related pubchem assays (depositor defined):AID2097, AID2223, AID489010, AID492950]; format: functional
T2 sequence (P9WHJ3 whole entry): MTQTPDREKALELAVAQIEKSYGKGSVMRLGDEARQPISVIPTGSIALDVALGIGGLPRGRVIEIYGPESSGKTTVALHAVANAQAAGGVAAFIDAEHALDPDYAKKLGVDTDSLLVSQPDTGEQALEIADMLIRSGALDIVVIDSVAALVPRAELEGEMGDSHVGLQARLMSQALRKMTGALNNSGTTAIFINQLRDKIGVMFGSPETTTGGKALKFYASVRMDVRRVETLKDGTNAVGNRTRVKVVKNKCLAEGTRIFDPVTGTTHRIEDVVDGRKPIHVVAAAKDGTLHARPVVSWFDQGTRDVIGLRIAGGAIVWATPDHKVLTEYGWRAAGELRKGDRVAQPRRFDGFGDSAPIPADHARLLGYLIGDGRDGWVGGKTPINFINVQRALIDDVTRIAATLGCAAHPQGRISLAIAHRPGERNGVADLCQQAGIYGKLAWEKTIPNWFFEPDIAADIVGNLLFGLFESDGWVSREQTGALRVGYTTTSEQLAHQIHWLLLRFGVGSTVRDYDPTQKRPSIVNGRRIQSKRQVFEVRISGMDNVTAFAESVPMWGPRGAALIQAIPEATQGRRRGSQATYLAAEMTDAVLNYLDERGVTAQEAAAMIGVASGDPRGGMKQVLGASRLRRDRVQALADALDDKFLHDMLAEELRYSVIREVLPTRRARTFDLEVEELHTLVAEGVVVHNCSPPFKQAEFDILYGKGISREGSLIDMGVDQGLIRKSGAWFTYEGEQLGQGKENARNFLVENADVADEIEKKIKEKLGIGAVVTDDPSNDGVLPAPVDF

[4] = target: T3, Replicative DNA helicase DnaB (Mycobacterium tuberculosis, UniProt P9WMR3); test: DnaB intein splicing inhibitors, dose response, biochemical, cell-free fluorescence (AID 449749); format: functional
T3 sequence (P9WMR3 whole entry): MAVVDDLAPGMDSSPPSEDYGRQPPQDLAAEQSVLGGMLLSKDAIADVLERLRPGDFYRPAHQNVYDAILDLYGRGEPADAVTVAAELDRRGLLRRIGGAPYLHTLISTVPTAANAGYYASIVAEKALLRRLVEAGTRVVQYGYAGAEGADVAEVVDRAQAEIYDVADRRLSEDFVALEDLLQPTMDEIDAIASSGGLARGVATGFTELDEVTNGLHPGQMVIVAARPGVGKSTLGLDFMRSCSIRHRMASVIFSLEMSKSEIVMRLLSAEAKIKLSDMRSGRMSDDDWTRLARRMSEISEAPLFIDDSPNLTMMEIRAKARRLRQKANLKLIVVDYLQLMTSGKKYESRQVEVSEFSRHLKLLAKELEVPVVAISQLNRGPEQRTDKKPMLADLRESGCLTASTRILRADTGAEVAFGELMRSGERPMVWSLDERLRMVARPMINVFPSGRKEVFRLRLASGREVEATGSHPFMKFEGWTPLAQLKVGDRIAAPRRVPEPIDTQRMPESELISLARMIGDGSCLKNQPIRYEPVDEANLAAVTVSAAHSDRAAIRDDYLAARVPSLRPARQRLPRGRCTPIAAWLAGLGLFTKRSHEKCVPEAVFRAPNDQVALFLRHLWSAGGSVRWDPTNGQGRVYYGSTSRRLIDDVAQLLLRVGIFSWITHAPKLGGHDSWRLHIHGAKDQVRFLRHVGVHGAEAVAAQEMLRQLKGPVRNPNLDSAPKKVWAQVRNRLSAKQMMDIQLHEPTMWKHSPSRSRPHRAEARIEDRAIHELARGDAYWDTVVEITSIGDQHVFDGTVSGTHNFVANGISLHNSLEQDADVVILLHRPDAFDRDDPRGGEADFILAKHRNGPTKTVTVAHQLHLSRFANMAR

[5] = Luminescence Cell-Based Dose Retest to Confirm Inhibitors of Cancer Stem Cells. [Related pubchem assays (depositor defined):AID2717, AID2721]; format: functional; details: Homo sapiens
[6] = target: T4, Ubiquitin-conjugating enzyme E2 N (Homo sapiens, UniProt P61088); format: functional;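 also: Dose-response confirmation in a TR-FRET assay detecting UBC13-driven polyubiquitin chain formation, inhibition measured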
T4 sequence (P61088 whole entry): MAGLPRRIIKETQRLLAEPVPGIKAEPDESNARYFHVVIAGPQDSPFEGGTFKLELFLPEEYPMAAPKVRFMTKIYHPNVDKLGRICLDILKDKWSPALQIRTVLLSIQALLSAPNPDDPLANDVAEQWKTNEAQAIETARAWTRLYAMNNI

[7] = reduction of Shn3 3'UTR-driven luciferase in osteoblasts – cell-based, Clone20 osteoblasts, firefly luciferase, cherry-picked, dose response (AID 624132); format: functional;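 also: firefly luciferase luminescence from reporter carrying the Shn3 3'UTR in osteoblasts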
[8] = target: T5, Corticotropin-releasing factor receptor 2/Corticotropin-releasing factor-binding protein (Homo sapiens, UniProt P24387+Q13324); test: activators of CRF receptor 2 with binding protein – uHTS hits, confirmation (AID 602473); format: functional; details: read-out: EC50_Mean
T5 sequence (Q13324 whole entry): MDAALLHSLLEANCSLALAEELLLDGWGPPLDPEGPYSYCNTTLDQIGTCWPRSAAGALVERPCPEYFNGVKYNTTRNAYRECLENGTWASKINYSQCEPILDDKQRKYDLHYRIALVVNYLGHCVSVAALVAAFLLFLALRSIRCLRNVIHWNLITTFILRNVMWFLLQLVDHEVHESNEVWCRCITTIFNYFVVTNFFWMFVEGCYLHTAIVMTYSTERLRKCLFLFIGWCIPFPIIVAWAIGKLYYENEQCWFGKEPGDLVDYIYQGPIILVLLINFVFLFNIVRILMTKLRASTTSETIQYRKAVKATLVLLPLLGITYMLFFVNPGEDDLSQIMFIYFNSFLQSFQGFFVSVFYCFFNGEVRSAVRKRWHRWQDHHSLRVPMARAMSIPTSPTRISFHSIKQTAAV
T5 sequence (P24387 whole entry): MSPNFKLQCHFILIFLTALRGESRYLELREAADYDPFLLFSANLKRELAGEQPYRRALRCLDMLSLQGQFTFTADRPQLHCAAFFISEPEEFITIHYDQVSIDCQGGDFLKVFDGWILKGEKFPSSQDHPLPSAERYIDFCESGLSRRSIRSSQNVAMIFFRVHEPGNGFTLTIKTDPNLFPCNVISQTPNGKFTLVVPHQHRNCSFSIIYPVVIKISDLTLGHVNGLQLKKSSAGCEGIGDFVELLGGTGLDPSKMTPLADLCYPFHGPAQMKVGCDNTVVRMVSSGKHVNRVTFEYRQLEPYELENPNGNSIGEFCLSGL

INS1 = test: INS-1E survival protection against cytokine death – cell-based, luminescence, retest, dose response (AID 449756); format: functional; details: Rattus norvegicus;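 also: cell death triggered by IL-1 beta plus TNF-alpha plus IFN-gamma mixture; protective hits raise ATP signal compared with cytokine alone wells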
Paired box protein Pax-8 = Paired box protein Pax-8 (Homo sapiens, UniProt Q06710); test: PAX8 transcriptional activity inhibition in RMG-I – RMG-I cells, luciferase, cherry-pick, dose response (AID 687027); format: functional, cell-based;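 also: luciferase reporter driven by Pax8 target thyroperoxidase promoter measured by SteadyGlo luminescence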
Paired box protein Pax-8, sequence (Q06710 whole entry): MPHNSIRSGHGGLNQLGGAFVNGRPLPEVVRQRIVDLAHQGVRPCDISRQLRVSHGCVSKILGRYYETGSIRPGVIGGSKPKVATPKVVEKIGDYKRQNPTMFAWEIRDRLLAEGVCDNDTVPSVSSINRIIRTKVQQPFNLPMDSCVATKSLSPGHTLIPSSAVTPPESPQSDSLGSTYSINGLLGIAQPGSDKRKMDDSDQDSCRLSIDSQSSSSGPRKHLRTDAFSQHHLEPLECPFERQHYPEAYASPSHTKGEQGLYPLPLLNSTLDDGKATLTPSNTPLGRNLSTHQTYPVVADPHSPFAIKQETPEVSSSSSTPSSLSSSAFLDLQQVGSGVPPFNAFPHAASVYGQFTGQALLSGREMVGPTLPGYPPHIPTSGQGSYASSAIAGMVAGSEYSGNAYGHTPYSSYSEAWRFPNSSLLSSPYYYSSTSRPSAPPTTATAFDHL

COc1ccccc1NS(=O)(=O)c1cc(NC(=O)CCC(=O)c2cccs2)ccc1Cl
EC50 [1]: 0.417 µM (active) | EC50 [2]: 123 µM (active)

O=[N+]([O-])c1ccc(N2CCCCCC2)c([N+](=O)[O-])c1
EC50 [3]: > 260 µM (inactive)

C/C(CC(=O)Nc1ccc(Cl)cn1)=N\NC(=O)Cc1cccs1
EC50 (Protein RecA): 5.12 µM (active) | AC50 [4]: 30.5 µM (active)

Cc1c(CCOC(=O)CC23CC4CC(CC(C4)C2)C3)sc[n+]1CC(=O)c1ccc(Br)cc1
AC50 [5]: 2.42 µM (active) | IC50 [6]: > 20 µM (inactive) | AC50 [7]: 12.9 µM (active)

Cn1c(SCc2ccccc2C#N)nc2ccccc2c1=O
EC50 [3]: > 260 µM (inactive)

CC1=NN(C)C(=O)C1Cc1c(F)cccc1Cl (centres undefined)
EC50 (Protein RecA): 0.74 µM (active) | AC50 [4]: 5.39 µM (active)

COc1cc2c(cc1OC)C(c1c(Cl)cccc1Cl)NC(=O)C2 (centres undefined)
EC50 [8]: 10.9 µM (active)

CC[n+]1ccc2cc(OC)c(OC)cc2c1Cc1ccc(OC)c(OC)c1
EC50 (Protein RecA): > 380 µM (inactive) | AC50 [4]: > 120 µM (inactive)

O=C(CNS(=O)(=O)c1ccc(Br)s1)NCc1ccccc1
EC50 [3]: > 260 µM (inactive)

Cc1ccc(-c2cc(C(F)(F)F)c(C#N)c(SCC(=O)O)n2)cc1
EC50 [3]: > 260 µM (inconclusive)

CCN(C[C@H]1N[C@@](Cc2ccccc2)(C(=O)OC)[C@H]2C(=O)N(Cc3ccccc3)C(=O)[C@@H]12)C(=O)C1CCCCC1
EC50 [8]: 5.33 µM (active)

Cc1ccc2nc(Cl)c3nnnn3c2c1
EC50 [1]: 0.646 µM (active) | EC50 [2]: 4.94 µM (inconclusive)

Cc1nc(SCC(=O)c2ccccc2)c(C#N)c(-c2ccco2)c1C(=O)NCc1ccco1
EC50 [3]: 99.7 µM (active)

CC1CC(=O)N(c2ccc(Br)cc2)C(=O)C1
AC50 (INS1): > 260 µM (inactive) | EC50 [3]: > 260 µM (inactive)

COC(=O)C1=C(c2ccc(F)cc2OCc2ccccc2)C[C@@H]2CC[C@H]1N2C(=O)NCc1ccc(C)cc1
AC50 (Paired box protein Pax-8): 15.1 µM (active)

Cc1cccc(OCC(=O)Oc2ccc(Cl)cc2)c1
EC50 (Protein RecA): 35.1 µM (active) | AC50 [4]: 9.75 µM (active)

Oc1ccc2ccccc2c1CNc1ccccn1
IC50 [6]: > 20 µM (inactive)

Cc1ccc(OC(=O)c2ccc(C)c(C)c2)cn1
EC50 [3]: > 260 µM (inactive)

COc1cc(-c2nnn(CC#N)n2)ccc1OCc1ccccc1
EC50 [3]: 90.9 µM (active)

COC(=O)C(Cc1ccc(O)cc1)NC(=O)C(CC(=O)OC(C)(C)C)NC(=O)OC(C)(C)C (centres undefined) (Boc-Asp(OtBu)-Tyr-OMe; configuration not given here)
EC50 [3]: > 260 µM (inactive)

Oc1ccc(C2=NN=C(NCc3ccc4c(c3)OCO4)SC2)c(O)c1
IC50 [6]: > 20 µM (inactive)

CCN(CC)C(=O)Oc1ccc(Br)cc1C(=O)Nc1ccc(F)cc1F
EC50 [3]: > 260 µM (inactive)

COc1ccc(C(=O)n2nnc3ccccc32)cc1Br
EC50 (Protein RecA): 30 µM (active) | AC50 [4]: 24.6 µM (active)

Cc1ccc(OCC(=O)N/N=C\c2c(C)[nH]n(-c3ccccc3)c2=O)c([N+](=O)[O-])c1
EC50 [1]: 6.77 µM (active) | EC50 [2]: > 150 µM (inactive)

Cn1c(SCC(=O)NCC2CCCO2)ncc(C(=O)Nc2ccccc2)c1=O (centres undefined)
EC50 (Protein RecA): 3.38 µM (active) | AC50 [4]: 28 µM (active)

COc1ccc(/C=C2/C(=O)N(c3cccc(F)c3)N=C2C)c(OC)c1
EC50 (Protein RecA): 44.6 µM (active) | AC50 [4]: 4.14 µM (active)

CCc1ccc(NC(=O)CSC2=C(C#N)C(c3ccc4c(c3)OCO4)CC(=O)N2)cc1 (centres undefined)
EC50 [3]: > 260 µM (inactive)

CN(C)/C=N/c1nccc(-c2cccs2)n1
EC50 [8]: > 53 µM (inactive)

N#CC(CO)(Cc1ccc(OC(F)F)cc1)c1nc2ccccc2[nH]1 (centres undefined)
EC50 [3]: > 260 µM (inactive)

CC1SC(c2ccc(Cl)cc2)NC1=O (centres undefined)
EC50 [3]: > 260 µM (inactive)

O=C(Cc1ccc([N+](=O)[O-])cc1)N1N=C(C2CC2)CC1(O)C(F)(F)F (centres undefined)
EC50 [3]: > 260 µM (inactive)
